{
  "source": "paper PMC10994559",
  "about": "(PLOS Neglected Tropical Diseases, 2024)",
  "key": {"T. brucei BSF proteome": {"tested_on": "T. brucei BSF proteome", "assay": "Label-free LC-MS/MS proteomics after PHT-39 exposure", "type": "cell-based, Trypanosoma brucei", "description": "4 x 10^7 cells were harvested by centrifugation (1000*g) after 48 h from cultures in logarithmic growth phase and washed thrice with PBS. Samples were subjected to lysis, tryptic digest and reductive alkylation using standard procedures. LC-MS/MS was performed by the OMICS Proteomics Facility at Charles University Biocev on an UltiMate 3000 RSLCnano System (Thermo Fisher Scientific) coupled to a Orbitrap Fusion mass spectrometer (Thermo Fisher Scientific). Mass spectra were analyzed by label-free quantification using MaxQuant version 2.1.0.0 [30] searching the T. brucei brucei 927 annotated protein database (release 57) from TriTrypDB [31]. Minimum peptide length was set at seven amino acids and false discovery rates of 0.01 were calculated at the levels of peptides, proteins, and modification sites based on the number of hits against the reversed sequence database. When the identified peptide sequence set of one protein contained the peptide set of another protein, these two proteins were assigned to the same protein group. P-values were calculated, applying t-test–based statistics using Perseus. Proteomics data have been deposited to the ProteomeXchange Consortium via the PRIDE partner repository with the data set identifier PXD043204."}, "T. brucei brucei BSF": {"tested_on": "T. brucei brucei BSF", "assay": "T. brucei BSF viability, resazurin reduction", "type": "cell-based, Trypanosoma brucei brucei", "settings": "Trypanosoma brucei"}},
  "data": [
    {"smiles": "CC[C@@H](C)[C@H](c1nc2ccccc2n1Cc1cn(-c2ccc(C(F)(F)F)cc2)nn1)N1C(=O)c2ccccc2C1=O", "note": "[PHT-39]", "values": [
      {"measurement": "Abundance change FAZ localized protein Tb927.1.4280", "setting": "T. brucei BSF proteome; 3.9 μM (1× EC50), 48 h", "value": 0.62, "unit": "fold"},
      {"measurement": "Abundance change Hsp104 homolog Tb927.2.5980", "setting": "T. brucei BSF proteome; 3.9 μM (1× EC50), 48 h", "value": 1.4, "unit": "fold"},
      {"measurement": "Abundance change PIP39 (Tb927.9.6090)", "setting": "T. brucei BSF proteome; 3.9 μM (1× EC50), 48 h", "value": 1.6, "unit": "fold"},
      {"measurement": "Abundance change axonemal protein SAXO (Tb927.8.6240)", "setting": "T. brucei BSF proteome; 3.9 μM (1× EC50), 48 h", "value": 0.65, "unit": "fold"},
      {"measurement": "PHT-39 ratio (protein abundance)", "setting": "T. brucei BSF proteome; protein 2-oxoglutarate dehydrogenase E1 component, Tb927.11.1450", "value": 1.73},
      {"measurement": "PHT-39 ratio (protein abundance)", "setting": "T. brucei BSF proteome; protein 2-oxoglutarate dehydrogenase E1 component, Tb927.11.9980", "value": 1.93},
      {"measurement": "PHT-39 ratio (protein abundance)", "setting": "T. brucei BSF proteome; protein ACS1, Tb927.7.6180", "value": "- ∞"},
      {"measurement": "PHT-39 ratio (protein abundance)", "setting": "T. brucei BSF proteome; protein Aconitase, Tb927.10.14000", "value": 1.39},
      {"measurement": "PHT-39 ratio (protein abundance)", "setting": "T. brucei BSF proteome; protein CIF1 (TOEFAZ1), Tb927.11.15800", "value": 0.46},
      {"measurement": "PHT-39 ratio (protein abundance)", "setting": "T. brucei BSF proteome; protein CIF3, Tb927.10.13100", "value": "- ∞"},
      {"measurement": "PHT-39 ratio (protein abundance)", "setting": "T. brucei BSF proteome; protein CIF4, Tb927.10.8240", "value": 0.88},
      {"measurement": "PHT-39 ratio (protein abundance)", "setting": "T. brucei BSF proteome; protein F1 alpha, Tb927.7.7430, Tb927.7.7420", "value": 1.31},
      {"measurement": "PHT-39 ratio (protein abundance)", "setting": "T. brucei BSF proteome; protein F1 beta, Tb927.3.1380", "value": 1.33},
      {"measurement": "PHT-39 ratio (protein abundance)", "setting": "T. brucei BSF proteome; protein F1 gamma, Tb927.10.180", "value": 1.23},
      {"measurement": "PHT-39 ratio (protein abundance)", "setting": "T. brucei BSF proteome; protein F1 p18, Tb927.5.1710", "value": 1.90},
      {"measurement": "PHT-39 ratio (protein abundance)", "setting": "T. brucei BSF proteome; protein FPRC, Tb927.10.6360", "value": 0.72},
      {"measurement": "PHT-39 ratio (protein abundance)", "setting": "T. brucei BSF proteome; protein Fo 8, Tb927.4.3450", "value": "∞"},
      {"measurement": "PHT-39 ratio (protein abundance)", "setting": "T. brucei BSF proteome; protein Fo ATBTB1, Tb927.10.520", "value": 1.48},
      {"measurement": "PHT-39 ratio (protein abundance)", "setting": "T. brucei BSF proteome; protein Fo ATBTB3, Tb927.11.6250", "value": 1.53},
      {"measurement": "PHT-39 ratio (protein abundance)", "setting": "T. brucei BSF proteome; protein Fo ATBTB4, Tb927.10.9830", "value": 1.36},
      {"measurement": "PHT-39 ratio (protein abundance)", "setting": "T. brucei BSF proteome; protein Fo ATBTB6, Tb927.11.1270", "value": 1.40},
      {"measurement": "PHT-39 ratio (protein abundance)", "setting": "T. brucei BSF proteome; protein Fo ATBTB12, Tb927.5.3090", "value": 3.78},
      {"measurement": "PHT-39 ratio (protein abundance)", "setting": "T. brucei BSF proteome; protein Fo OSCP, Tb927.10.8030", "value": 2.93},
      {"measurement": "PHT-39 ratio (protein abundance)", "setting": "T. brucei BSF proteome; protein Fo d, Tb927.5.2930", "value": 1.35},
      {"measurement": "PHT-39 ratio (protein abundance)", "setting": "T. brucei BSF proteome; protein Fo e, Tb927.11.600", "value": 1.09},
      {"measurement": "PHT-39 ratio (protein abundance)", "setting": "T. brucei BSF proteome; protein Fo f, Tb927.3.1690", "value": 1.36},
      {"measurement": "PHT-39 ratio (protein abundance)", "setting": "T. brucei BSF proteome; protein Fo i/j, Tb927.3.2880", "value": 1.66},
      {"measurement": "PHT-39 ratio (protein abundance)", "setting": "T. brucei BSF proteome; protein Fo k, Tb927.7.840", "value": 3.17},
      {"measurement": "PHT-39 ratio (protein abundance)", "setting": "T. brucei BSF proteome; protein Glutamate dehydrogenase, Tb927.9.5900", "value": 1.53},
      {"measurement": "PHT-39 ratio (protein abundance)", "setting": "T. brucei BSF proteome; protein PIP39, Tb927.9.6090", "value": 1.62},
      {"measurement": "PHT-39 ratio (protein abundance)", "setting": "T. brucei BSF proteome; protein PPDK, Tb927.11.6280", "value": "∞"},
      {"measurement": "PHT-39 ratio (protein abundance)", "setting": "T. brucei BSF proteome; protein Proline dehydrogenase, Tb927.7.210", "value": 1.66},
      {"measurement": "PHT-39 ratio (protein abundance)", "setting": "T. brucei BSF proteome; protein SAXO, Tb927.8.6240", "value": 0.65},
      {"measurement": "PHT-39 ratio (protein abundance)", "setting": "T. brucei BSF proteome; protein Tb927.1.4280", "value": 0.63},
      {"measurement": "Difference (LFQ intensity treated vs untreated)", "setting": "T. brucei BSF proteome; protein Tb927.10.4770, phosphatidylinositol-4-phosphate 5-kinase, putative", "value": 2.042},
      {"measurement": "Difference (LFQ intensity treated vs untreated)", "setting": "T. brucei BSF proteome; protein Tb927.4.3450, Mitochondrial ATP synthase subunit, putative", "value": 5.909},
      {"measurement": "Difference (LFQ intensity treated vs untreated)", "setting": "T. brucei BSF proteome; protein Tb927.6.980;Tb927.6.970;Tb927.6.960;Tb927.6.1020;Tb927.6.1010, cysteine peptidase, Cathepsin L-like", "value": 5.36},
      {"measurement": "Difference (LFQ intensity treated vs untreated)", "setting": "T. brucei BSF proteome; protein Tb927.7.2660, zinc finger protein family member, putative", "value": 3.448},
      {"measurement": "Difference (LFQ intensity treated vs untreated)", "setting": "T. brucei BSF proteome; protein Tb927.9.12700, phospholipase A1, putative", "value": 3.03},
      {"measurement": "PHT-39 ratio (protein abundance)", "setting": "T. brucei BSF proteome; protein citrate synthase, Tb927.10.13430", "value": 1.66},
      {"measurement": "PHT-39 ratio (protein abundance)", "setting": "T. brucei BSF proteome; protein isocitrate dehydrogenase, Tb927.8.3690", "value": 1.46},
      {"measurement": "PHT-39 ratio (protein abundance)", "setting": "T. brucei BSF proteome; protein mitochondrial malate dehydrogenase, Tb927.10.2560", "value": 1.32},
      {"measurement": "PHT-39 ratio (protein abundance)", "setting": "T. brucei BSF proteome; protein succinyl-CoA ligase beta-chain, Tb927.10.7410", "value": 1.79},
      {"measurement": "PHT-39 ratio (protein abundance)", "setting": "T. brucei BSF proteome; protein succinyl-CoA synthetase alpha subunit, Tb927.3.2230", "value": 1.72},
      {"measurement": "viability at 2.5 µM", "setting": "T. brucei brucei BSF; 72 h, read-out: Residual viability, T.brucei (2.5 µM), BSF, 2.5 µM, 72 h", "value": "64.9 ± 7.25", "unit": "%"},
      {"measurement": "viability at 25 µM", "setting": "T. brucei brucei BSF; 72 h, read-out: Residual viability, T.brucei (25 µM), BSF, 25 µM, 72 h", "value": "2.85 ± 2.88", "unit": "%"},
      {"measurement": "EC50", "setting": "T. brucei brucei BSF; read-out: EC50 T. brucei BSF, dose response, triplicate, ± SD (Table 2) / ± SE (S3 Table)", "value": "3.9 ± 1.7", "unit": "µM"}
    ]}
  ]
}
